# Key:
# [1] = target: T1, [MCL-1]-[compound of formula (I)]-[CRBN/DDB1] complex (Homo sapiens, UniProt Q07820+Q96SW2); experiment: HTRF ternary complex assay; type: binding; conditions: ternary complex formation; read-out: HTRF ternary complex Average pEC50 by molecule (converted)
# Experimental: The effect of the bifunctional compounds of the invention on the formation of a ternary complex composed of [MCL-1]-[compound of formula (I)]-[CRBN/DDB1] was investigated.
# Mix of protein solution were prepared: • 48 nM hMcl-1 and 105.6 nM CRBN was prepared in PPI Europium detection buffer with 2 mM DTT. • Acceptor and donor stock solutions were diluted 100 times in PPI Europium detection buffer. Equal volumes of both reagents were mixed. Finally giving 3 nM of Streptavidin-Eu cryptate […] and 6.67 nM of Anti-6× his-d2 […].
# 5 μl of protein mix was dispensed to all wells. The tested compounds in dose-response were dispensed onto a white 384-well low volume plate (Greiner, 784075). DMSO was backfilled to all wells, resulting in a final DMSO content of 0.5%. Wells containing only DMSO served as background. Next, 5 μl of solution with donor and acceptor was added to the wells.
# The plate was sealed with transparent film and shaken using a VibroTurbulator for 60 see at level 3. The plate was then spun down shortly (10 s, 1000 rcf) and incubated at 25° C. for 180 min.
# The read-out was performed with plate reader (Pherastar, BMG Labtech) in time resolved fluorescence mode. Filterset: TR 337 665 620.
# The results were analyzed as follows: • 1) an average of fluorescence for background signal was calculated and used as a negative control; • 2) raw fluorescence values for tested compounds were normalized against negative controls; • 3) bell shape curve was fitted to a gaussian distribution using a non-linear least squares Gauss-Newton algorithm; • 4) EC50 and pEC50 values were determined.
# [2] = target: T1, [MCL-1]-[compound of formula (I)]-[CRBN/DDB1] complex; experiment: AlphaLISA dose response ternary complex formation assay; type: binding; conditions: read-out: AlphaLISA dose response Average pEC50 by molecule (converted)
# Method in brief: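 EC50 comes from dose–response of AlphaLISA luminescence (excitation 680, emission 615 nm), normalised between DMSO background and an internal positive control, with concentrations past the hook point dropped. Ternary complex formed by mixing bead-bound biotin-hMCL-1 and His-CRBN/DDB1 (protein solutions 40 and 200 nM) with compound in 2% DMSO, 30 min, 25 °C.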
# MV-4-11 cells = experiment: Cell viability assay (CellTiter-Glo), MV-4-11; type: cell-based; conditions: Homo sapiens, MV4-11, 24 hours incubation, 1% FBS, read-out: Average pIC50 by molecule MV-4-11 (converted)
# Method in brief: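 OPM-2, MV-4-11 and ARH-77 cells were grown in medium with 1% FBS and treated with compound in 1/3 dilutions from 30 uM (9–12 points, 0.5% DMSO). Viability was read by CellTiter-Glo luminescence after 24 hours and normalized to DMSO control.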
# ARH-77 cells = experiment: Cell viability assay (CellTiter-Glo), ARH-77; type: cell-based; conditions: Homo sapiens, ARH-77, 24 hours incubation, 1% FBS, read-out: Average pIC50 by molecule ARH-77 (converted)
# Source text: The effect of various compounds of the invention on the viability of OPM-2, MV-4-11 and ARH-77 cell lines was investigated, using the CTG protocol described below.
# OPM-2 and MV-4-11 cell lines are derived from multiple myeloma and acute myeloid leukaemia, respectively. Both cell lines are described in the literature as MCL-1 dependent lines, as opposed to lymphoblast-like ARH-77 cell line, which is described as independent of MCL-1 (Tron A E et al. Nat Commun. 2018; 9: 5341; Caenepeel S et al. Cancer Discov. 2018 December; 8(12):1582-1597).
# Cells (OPM-2, MV-4-11 or ARH-77) were seeded on […] in a growth medium with FBS reduced to 1%. Next, compound stocks were pre-diluted in DMSO and added directly to the cells growth medium (final DMSO concentration: 0.5%). Compound concentrations used in this assay: 1/3 dilutions starting at 30 uM (9 to 12 points).
# After 24 hours of incubation, cell viability was evaluated using CellTiter-Glo Luminescent Cell Viability Assay (Promega, cat #G7572). Luminescence signal was measured using a CLARIOstar Plus Multi-Mode Microplate Reader (574-590 nm).
# Results were normalized to DMSO control.
# T1 sequence (Q07820 whole entry): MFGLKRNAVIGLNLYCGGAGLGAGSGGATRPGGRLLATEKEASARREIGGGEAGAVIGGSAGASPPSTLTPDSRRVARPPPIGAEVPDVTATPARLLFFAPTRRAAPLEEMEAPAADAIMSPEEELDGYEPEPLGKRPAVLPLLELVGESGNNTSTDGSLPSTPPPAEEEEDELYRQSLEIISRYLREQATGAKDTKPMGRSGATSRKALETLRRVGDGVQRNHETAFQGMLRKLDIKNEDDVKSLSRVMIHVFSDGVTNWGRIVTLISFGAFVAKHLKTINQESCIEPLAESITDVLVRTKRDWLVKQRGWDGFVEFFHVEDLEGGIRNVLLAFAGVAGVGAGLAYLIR
# T1 sequence (Q96SW2 whole entry): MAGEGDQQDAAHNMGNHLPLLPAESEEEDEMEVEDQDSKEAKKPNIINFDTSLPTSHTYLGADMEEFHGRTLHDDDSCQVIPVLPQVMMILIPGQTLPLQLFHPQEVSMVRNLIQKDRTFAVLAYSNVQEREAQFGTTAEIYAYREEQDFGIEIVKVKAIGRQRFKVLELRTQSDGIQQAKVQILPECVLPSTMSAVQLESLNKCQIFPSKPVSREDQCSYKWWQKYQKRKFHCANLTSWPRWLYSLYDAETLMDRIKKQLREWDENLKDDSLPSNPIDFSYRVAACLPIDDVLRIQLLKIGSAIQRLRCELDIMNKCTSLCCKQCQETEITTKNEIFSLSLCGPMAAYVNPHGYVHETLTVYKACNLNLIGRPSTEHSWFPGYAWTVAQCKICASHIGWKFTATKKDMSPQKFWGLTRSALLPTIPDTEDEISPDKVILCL
# T1 sequence (Q16531 whole entry partner): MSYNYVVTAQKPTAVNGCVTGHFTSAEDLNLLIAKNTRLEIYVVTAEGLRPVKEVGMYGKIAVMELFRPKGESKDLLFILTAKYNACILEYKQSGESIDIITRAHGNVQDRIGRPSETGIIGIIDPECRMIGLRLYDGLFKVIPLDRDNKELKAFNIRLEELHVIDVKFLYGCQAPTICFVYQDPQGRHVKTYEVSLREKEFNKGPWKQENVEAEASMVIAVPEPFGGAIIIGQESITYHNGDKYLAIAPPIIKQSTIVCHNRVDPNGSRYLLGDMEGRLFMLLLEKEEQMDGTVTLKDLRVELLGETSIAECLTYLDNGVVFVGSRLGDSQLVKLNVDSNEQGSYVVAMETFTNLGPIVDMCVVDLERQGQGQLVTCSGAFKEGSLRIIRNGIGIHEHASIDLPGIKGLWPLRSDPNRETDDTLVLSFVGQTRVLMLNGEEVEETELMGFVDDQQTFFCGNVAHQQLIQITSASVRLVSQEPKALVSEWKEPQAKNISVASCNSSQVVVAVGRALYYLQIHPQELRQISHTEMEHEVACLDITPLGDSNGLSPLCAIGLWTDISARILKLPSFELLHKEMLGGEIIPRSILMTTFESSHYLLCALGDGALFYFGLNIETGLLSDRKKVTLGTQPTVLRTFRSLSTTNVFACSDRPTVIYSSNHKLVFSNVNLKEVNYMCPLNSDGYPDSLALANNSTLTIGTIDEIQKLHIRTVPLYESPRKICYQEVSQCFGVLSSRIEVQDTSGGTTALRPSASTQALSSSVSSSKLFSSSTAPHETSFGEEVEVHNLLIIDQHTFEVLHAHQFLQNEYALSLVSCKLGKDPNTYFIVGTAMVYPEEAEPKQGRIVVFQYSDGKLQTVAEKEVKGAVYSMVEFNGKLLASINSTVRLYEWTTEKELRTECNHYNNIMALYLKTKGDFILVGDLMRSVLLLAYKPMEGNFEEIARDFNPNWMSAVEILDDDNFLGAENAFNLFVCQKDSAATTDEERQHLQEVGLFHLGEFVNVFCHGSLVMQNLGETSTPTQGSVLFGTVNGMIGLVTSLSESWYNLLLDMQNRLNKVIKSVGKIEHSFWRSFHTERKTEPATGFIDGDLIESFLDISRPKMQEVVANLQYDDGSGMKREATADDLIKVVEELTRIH
EC50 [1] [nM],EC50 [2] [nM],IC50 (MV-4-11 cells) [nM],Compound,IC50 (ARH-77 cells) [µM]
< 100,,,"Cc1nn(C)c(C)c1-c1c(Cl)ccc2c(CCCOc3cccc4cc(F)ccc34)c(C(=O)O)n(CCN3CC4(CCCN(C(=O)COc5cccc6c5CN(C5CCC(=O)NC5=O)C6=O)C4)C3)c12 (stereo not drawn) [Compound 304, 6-Chloro-1-(2-(6-(2-((2-(2,6-dioxopiperidin-3-yl)-1-oxoisoindolin-4-yl)oxy)acetyl)-2,6-diazaspiro[3.5]nonan-2-yl)ethyl)-3-(3-((6-fluoronaphthalen-1-yl)oxy)propyl)-7-(1,3,5-trimethyl-1H-pyrazol-4-yl)-1H-indole-2-carboxylic acid]",
< 100,,,"Cc1nn(C)c(C)c1-c1c(Cl)ccc2c(CCCOc3cccc4cc(F)ccc34)c(C(=O)O)n(CCN3CCN(C(=O)C(C)(C)Oc4cccc5c4CN(C4CCC(=O)NC4=O)C5=O)CC3)c12 (stereo not drawn) [Compound 311, 6-Chloro-1-{2-[4-(2-{[2-(2,6-dioxopiperidin-3-yl)-1-oxo-2,3-dihydro-1H-isoindol-4-yl]oxy}-2-methylpropanoyl)piperazin-1-yl]ethyl}-3-{3-[(6-fluoronaphthalen-1-yl)oxy]propyl}-7-(1,3,5-trimethyl-1H-pyrazol-4-yl)-1H-indole-2-carboxylic acid]",
< 100,,,"Cc1nn(C)c(C)c1-c1c(Cl)ccc2c(CCCOc3cccc4cc(F)ccc34)c(C(=O)O)n(CCN3CC4(CCN(C(=O)COc5cccc6c5CN(C5CCC(=O)NC5=O)C6=O)C4)C3)c12 (stereo not drawn) [Compound 305, 6-Chloro-1-(2-(6-(2-((2-(2,6-dioxopiperidin-3-yl)-1-oxoisoindolin-4-yl)oxy)acetyl)-2,6-diazaspiro[3.4]octan-2-yl)ethyl)-3-(3-((6-fluoronaphthalen-1-yl)oxy)propyl)-7-(1,3,5-trimethyl-1H-pyrazol-4-yl)-1H-indole-2-carboxylic acid]",
< 100,,,"Cc1nn(C)c(C)c1-c1c(Cl)ccc2c(CCCOc3cccc4cc(F)ccc34)c(C(=O)O)n(CCN3CCN(C(=O)CSc4cccc5c4CN(C4CCC(=O)NC4=O)C5=O)CC3)c12 (stereo not drawn) [Compound 322, 6-Chloro-1-(2-(4-(2-((2-(2,6-dioxopiperidin-3-yl)-1-oxoisoindolin-4-yl)thio)acetyl)piperazin-1-yl)ethyl)-3-(3-((6-fluoronaphthalen-1-yl)oxy)propyl)-7-(1,3,5-trimethyl-1H-pyrazol-4-yl)-1H-indole-2-carboxylic acid]",
< 100,,,"Cc1nc2cc(C(=O)N3CCN(CCn4c(C(=O)O)c(CCCOc5cccc6cc(F)ccc56)c5ccc(Cl)c(-c6c(C)nn(C)c6C)c54)CC3)ccc2cc1C1CCC(=O)NC1=O (stereo not drawn) [Compound 291, 6-Chloro-1-(2-{4-[3-(2,6-dioxopiperidin-3-yl)-2-methylquinoline-7-carbonyl]piperazin-1-yl}ethyl)-3-{3-[(6-fluoronaphthalen-1-yl)oxy]propyl}-7-(1,3,5-trimethyl-1H-pyrazol-4-yl)-1H-indole-2-carboxylic acid]",
< 100,,,"Cc1cc(OCCCc2c(C(=O)NS(=O)(=O)CCNC(=O)CCOCCOCCNc3cccc4c3C(=O)N(C3CCC(=O)NC3=O)C4=O)n(C)c3c(-c4c(C)nn(C)c4C)c(Cl)ccc23)cc(C)c1Cl (stereo not drawn) [Compound 252, 6-chloro-3-(3-(4-chloro-3,5-dimethylphenoxy)propyl)-N-((2-(3-(2-(2-((2-(2,6-dioxopiperidin-3-yl)-1,3-dioxoisoindolin-4-yl)amino)ethoxy)ethoxy)propanamido)ethyl)sulfonyl)-1-methyl-7-(1,3,5-trimethyl-1H-pyrazol-4-yl)-1H-indole-2-carboxamide]",
< 10,,,"Cc1nc2ccc(C(=O)N3CCN(CCn4c(C(=O)O)c(CCCOc5cccc6cc(F)ccc56)c5ccc(Cl)c(-c6c(C)nn(C)c6C)c54)CC3)cc2cc1C1CCC(=O)NC1=O (stereo not drawn) [Compound 290, 6-Chloro-1-(2-(4-(3-(2,6-dioxopiperidin-3-yl)-2-methylquinoline-6-carbonyl)piperazin-1-yl)ethyl)-3-(3-((6-fluoronaphthalen-1-yl)oxy)propyl)-7-(1,3,5-trimethyl-1H-pyrazol-4-yl)-1H-indole-2-carboxylic acid]",
< 100,,,"Cc1noc(C)c1-c1c(Cl)ccc2c(CCCOc3cccc4cc(F)ccc34)c(C(=O)O)n(CCN3CCN(C(=O)COc4cccc5c4CN(C4CCC(=O)NC4=O)C5=O)CC3)c12 (stereo not drawn) [Compound 347, 6-Chloro-7-(3,5-dimethylisoxazol-4-yl)-1-(2-(4-(2-((2-(2,6-dioxopiperidin-3-yl)-1-oxoisoindolin-4-yl)oxy)acetyl)piperazin-1-yl)ethyl)-3-(3-((6-fluoronaphthalen-1-yl)oxy)propyl)-1H-indole-2-carboxylic acid]",
< 100,,,Cc1nn(C)c(C)c1-c1c(Cl)ccc2c(CCCOc3cccc4cc(F)ccc34)c(C(=O)O)n(CCN3CC4(C3)CN(C(=O)COc3cccc5c3CN(C3CCC(=O)NC3=O)C5=O)C4)c12 (stereo not drawn) [Compound 303],
,< 100,≤ 100,"Cc1nn(C)c(C)c1-c1c(Cl)ccc2c(CCCOc3cccc4cc(F)ccc34)c(C(=O)O)n(CCN3CCN(C(=O)Cn4c(C)nc5c(C(=O)NC6CCC(=O)NC6=O)cc(Cl)cc54)CC3)c12 (stereo not drawn) [Compound 276, 6-Chloro-1-(2-(4-(2-(6-chloro-4-((2,6-dioxopiperidin-3-yl)carbamoyl)-2-methyl-1H-benzo[d]imidazol-1-yl)acetyl)piperazin-1-yl)ethyl)-3-(3-((6-fluoronaphthalen-1-yl)oxy)propyl)-7-(1,3,5-trimethyl-1H-pyrazol-4-yl)-1H-indole-2-carboxylic acid]",> 10
,< 100,≤ 31.6,"Cc1nn(C)c(C)c1-c1c(Cl)ccc2c(CCCOc3cccc4cc(F)ccc34)c(C(=O)O)n(CCN3CCN(C(=O)[C@H](C)Oc4cccc5c4C(=O)N(C4CCC(=O)NC4=O)C5=O)CC3)c12 (mixture of isomers) [Compound 318, 6-Chloro-1-(2-(4-((2S)-2-((2-(2,6-dioxopiperidin-3-yl)-1,3-dioxoisoindolin-4-yl)oxy)propanoyl)piperazin-1-yl)ethyl)-3-(3-((6-fluoronaphthalen-1-yl)oxy)propyl)-7-(1,3,5-trimethyl-1H-pyrazol-4-yl)-1H-indole-2-carboxylic acid]",> 10
,< 100,≤ 316,"Cc1nn(C)c(C)c1-c1c(Cl)ccc2c(CCCOc3cccc4ccccc34)c(C(=O)O)n(CCC3CCN(C(=O)COc4cccc5c4CN(C4CCC(=O)NC4=O)C5=O)CC3)c12 (stereo not drawn) [Compound 223, 6-chloro-1-{2-[1-(2-{[2-(2,6-dioxopiperidin-3-yl)-1-oxo-2,3-dihydro-1H-isoindol-4-yl]oxy}acetyl)piperidin-4-yl]ethyl}-3-[3-(naphthalen-1-yloxy)propyl]-7-(1,3,5-trimethyl-1H-pyrazol-4-yl)-1H-indole-2-carboxylic acid]",> 10
,< 100,≤ 100,"COc1ccc(C(=O)NC2CCC(=O)NC2=O)c2nc(C)n(CC(=O)N3CCN(CCn4c(C(=O)O)c(CCCOc5cccc6cc(F)ccc56)c5ccc(Cl)c(-c6c(C)nn(C)c6C)c54)CC3)c12 (stereo not drawn) [Compound 272, 6-Chloro-1-(2-(4-(2-(4-((2,6-dioxopiperidin-3-yl)carbamoyl)-7-methoxy-2-methyl-1H-benzo[d]imidazol-1-yl)acetyl)piperazin-1-yl)ethyl)-3-(3-((6-fluoronaphthalen-1-yl)oxy)propyl)-7-(1,3,5-trimethyl-1H-pyrazol-4-yl)-1H-indole-2-carboxylic acid]",> 10
